Literature values as cited in patent publication US5189064A, “Treatment of cocaine addiction” (Matrix Technologies, Inc., priority 1990, dated 1993).
Where two headings read alike, the source gives them in different places. Square brackets hold non-standard residues; d marks the D form. Ends that are not written are not given here.

Tests used:
enkephalinases = details: rat intestinal mucosa
enkephalinase B = details: in vitro, calf brain enzyme
carboxypeptidase A = target: T1, carboxypeptidase A (Bos taurus, UniProt P00730)
T1 sequence (P00730 111-417 limits assumed): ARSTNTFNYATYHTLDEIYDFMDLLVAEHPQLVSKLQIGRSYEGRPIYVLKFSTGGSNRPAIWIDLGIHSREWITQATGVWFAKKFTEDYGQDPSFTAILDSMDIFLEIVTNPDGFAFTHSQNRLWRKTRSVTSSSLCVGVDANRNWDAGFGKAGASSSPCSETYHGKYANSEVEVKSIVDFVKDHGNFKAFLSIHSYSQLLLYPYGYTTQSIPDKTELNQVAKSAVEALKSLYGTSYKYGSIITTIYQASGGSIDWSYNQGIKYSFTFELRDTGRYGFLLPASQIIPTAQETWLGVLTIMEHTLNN

enkephalinase A = details: in vitro, calf brain enzyme
[Met]-enkephalin [1] = system: [Met]-enkephalin
[Met]-enkephalin [2] = mice
[3] = tryptophan injected into the bloodstream
[4] = infusion, neurological patients with depression and insomnia
healthy men = details: tryptophan 50 mg/kg, tyrosine 100 mg/kg, eight healthy men

In the case of `N[C@H](Cc1ccccc1)C(=O)O` [D-phenylalanine], the “degradation of (D-Ala2-D-Leu5) enkephalin (DAPLE) and Tyr-D-Ala-Gly-Phe (TAAGP)” value (enkephalinases) is listed as “significantly reduced degradation”, the “inhibitory activity against enkephalinase B” value (enkephalinase B) is listed as “much less effective” and the “inhibition of carboxypeptidase A” value (carboxypeptidase A) is listed as “inhibit carboxypeptidase A”. The “inhibitory activity against enkephalinase A” value (enkephalinase A) was “much less effective”, the “CNS [Met]-enkephalin level” value ([Met]-enkephalin [1]; six days later) was “remained high” and the “CNS increases of [Met]-enkephalin” value ([Met]-enkephalin [1]; within 90 minutes following DPA injection) was “tripled”. For the same compound, the endorphinase inhibited (endorphinase; cortex) was 18%, the endorphinase inhibited (endorphinase; hypothalamus) was 5% and the endorphinase inhibited (endorphinase; spinal cord) was 40%. For the same compound, the endorphinase inhibited (endorphinase; striatum) was 10%, the enkephalinase inhibited (enkephalinase; cortex) was 60% and the enkephalinase inhibited (enkephalinase; hypothalamus) was 80%. For the same compound, the enkephalinase inhibited (enkephalinase; spinal cord) was 84% and the enkephalinase inhibited (enkephalinase; striatum) was 78%.

For `O=C(O)CCc1ccccc1` [hydrocinnamic acid], the “[Met]-enkephalin in the brain” value ([Met]-enkephalin [2]) is given as “increases of [Met]-enkephalin”.

In the case of `N[C@@H](Cc1c[nH]c2ccccc12)C(=O)O` [tryptophan, L-tryptophan], the “level of serotonin in the brain elevated” value [3] is listed as “two”, the “level of tryptophan in the brain elevated” value [3] is listed as “nine” and the “elevations in cortical tryptophan levels” value [4] is listed as “six”. For the same compound, the pain discriminability (healthy men) was “significantly reduced pain discriminibility”.

For `N[C@@H](Cc1ccc(O)cc1)C(=O)O` [tyrosine, L-tyrosine], the pain discriminability (healthy men) is given as “not”.

For [dF]-Tyr, the “inhibitory activity against enkephalinase B” value (enkephalinase B) is listed as “markedly enhances the inhibitory potency” and the “inhibitory activity against enkephalinase A” value (enkephalinase A) is listed as “markedly enhances the inhibitory potency”.
